{
  "source": "paper PMC3197876",
  "about": "(Journal of medicinal chemistry, 2011)",
  "key": {"[1]": {"test_system": "BALB/cJ male mice", "type": "in vivo, mouse"}, "[2]": {"target": "β2* nAChR (Mus musculus, UniProt O70174+Q9ERK7)", "assay": "β2* nAChR ex vivo receptor occupancy in the thalamus", "settings": "for receptor occupancy at 3 mg/kg: mouse, ip, read-out: ex vivo receptor occupancy at β2* receptors"}, "[3]": {"target": "α4β2* nAChR (native) (Rattus norvegicus, UniProt P09483+P12390)", "assay": "[3H]epibatidine binding competition, rat forebrain membranes"}, "[4]": {"target": "human α4β2-nAChR (Homo sapiens, UniProt P17787+P43681)", "assay": "86Rb+ efflux assay in SH-EP1-hα4β2 cells", "settings": "86Rb+ ion flux assay"}, "[5]": {"target": "α4β2 nAChR (Rattus norvegicus, UniProt P09483+P12390)", "type": "binding", "settings": "ratio of Ki values"}, "[6]": {"assay": "In vitro metabolism with mouse liver microsomes", "type": "in vitro ADME", "settings": "1 µM"}, "[7]": {"test_system": "nine different CYP450 enzymes", "assay": "CYP450 inhibition", "type": "in vitro ADME"}, "[8]": {"target": "β3 adrenergic receptor (Homo sapiens, UniProt P13945)", "assay": "PDSP primary binding screen", "settings": "read-out: %Inhibition β3"}, "[9]": {"target": "DAT: Dopamine Transporter (Homo sapiens, UniProt Q01959)", "assay": "PDSP primary binding screen", "settings": "read-out: %Inhibition DAT"}, "[10]": {"assay": "In vitro metabolism with human liver microsomes", "type": "in vitro ADME", "settings": "1 µM"}, "[11]": {"target": "H1 histaminergic receptor (Homo sapiens, UniProt P35367)", "assay": "PDSP primary binding screen", "settings": "read-out: %Inhibition H1"}, "[12]": {"target": "T1, M5 muscarinic receptor (Homo sapiens, UniProt P08912)", "T1 sequence (P08912 1-532)": "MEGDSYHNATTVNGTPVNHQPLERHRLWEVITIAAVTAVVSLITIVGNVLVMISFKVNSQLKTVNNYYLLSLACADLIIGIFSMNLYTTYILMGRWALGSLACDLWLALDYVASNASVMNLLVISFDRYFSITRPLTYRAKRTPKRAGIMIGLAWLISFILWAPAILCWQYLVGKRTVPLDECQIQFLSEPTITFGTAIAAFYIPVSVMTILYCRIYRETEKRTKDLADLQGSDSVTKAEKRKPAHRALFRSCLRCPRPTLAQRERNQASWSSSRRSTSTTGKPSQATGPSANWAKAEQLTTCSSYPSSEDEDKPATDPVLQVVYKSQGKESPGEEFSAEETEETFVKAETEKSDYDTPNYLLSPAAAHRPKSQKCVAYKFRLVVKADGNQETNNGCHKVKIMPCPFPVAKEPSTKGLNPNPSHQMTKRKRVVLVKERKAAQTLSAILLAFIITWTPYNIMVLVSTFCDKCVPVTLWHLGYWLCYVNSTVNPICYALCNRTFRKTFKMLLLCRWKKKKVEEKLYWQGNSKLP", "assay": "PDSP primary binding screen", "settings": "read-out: %Inhibition M5"}, "[13]": {"target": "5-HT5A (Homo sapiens, UniProt P47898)", "assay": "PDSP primary binding screen", "settings": "read-out: %Inhibition 5-HT5A"}, "[14]": {"settings": "intraperitoneal, 1 mg/kg, 30 min before test"}},
  "note": "“Also recorded” adds a separate entry of the source. Like-named read-outs stand apart in the source and are kept apart here.",
  "data": [
    {"smiles": "CN[C@H]1CC[C@@H](c2ccc(Cl)c(Cl)c2)c2ccccc21", "note": "[sertraline, reference compound]", "values": [
      {"measurement": "immobility in forced swim test (Figure 5)", "setting": "[1]; positive control in oral study, 10 or 20 mg/kg", "result": "expected decrease in immobility"},
      {"measurement": "immobility in forced swim test (Figure 3)", "setting": "[1]; positive control, intraperitoneal, 10 or 20 mg/kg", "result": "expected decrease in immobility"}
    ]},
    {"smiles": "Cl.OCc1cc(-c2cncc(OC[C@@H]3CCN3)c2)on1", "note": "[Compound 4, 5-[5-(2(S)-Azetidinylmethoxy)-3-pyridyl]-3-isoxazolylmethanol Hydrochloride]", "values": [
      {"measurement": "receptor occupancy at 3 mg/kg", "setting": "[2]", "result": "60 to 70", "unit": "%"},
      {"measurement": "Ki", "setting": "[3]", "result": "0.61 ± 0.1", "unit": "nM"},
      {"measurement": "immobility in forced swim test (Figure 3)", "setting": "[1]; intraperitoneal, highest dose only", "result": "insignificant trend"},
      {"measurement": "functional characterization at α4β2-nAChRs", "setting": "[4]", "result": "partial agonists"},
      {"measurement": "selectivity for α4β2- over α3β4-nAChR", "setting": "[5]", "result": "20,000 fold"}
    ]},
    {"smiles": "Cl.OCCc1cc(-c2cncc(OC[C@@H]3CCN3)c2)on1", "note": "[Compound 5, 2-[5-[5-(2(S)-Azetidinylmethoxyl)-3-pyridyl]-3-isoxazolyl]ethanol Hydrochloride]", "values": [
      {"measurement": "receptor occupancy (Figure 4, in words)", "setting": "[2]; 3 mg/kg intraperitoneal, mice", "result": "higher receptor occupancy"},
      {"measurement": "receptor occupancy at 3 mg/kg", "setting": "[2]", "result": "~80", "unit": "%"},
      {"measurement": "immobility in forced swim test", "setting": "[1]; [14]", "result": "significant reduction in immobility"},
      {"measurement": "immobility in forced swim test", "setting": "[1]; intraperitoneal, 3 mg/kg", "result": "significant reduction in immobility"},
      {"measurement": "immobility in forced swim test", "setting": "[1]; oral, 10 mg/kg", "result": "decreased the time immobile"},
      {"measurement": "immobility in forced swim test (Figure 5)", "setting": "[1]; oral, all doses tested", "result": "efficacious"}
    ]},
    {"smiles": "Cl.OCCCc1cc(-c2cncc(OC[C@@H]3CCN3)c2)on1", "note": "[Compound 3, 3-[5-[5-(2(S)-Azetidinylmethoxy)-3-pyridyl]-3-isoxazolyl]-1-propanol Hydrochloride]", "values": [
      {"measurement": "receptor occupancy at 3 mg/kg", "setting": "[2]", "result": "60 to 70", "unit": "%"},
      {"measurement": "Ki", "setting": "[3]", "result": "1.9 ± 0.3", "unit": "nM"},
      {"measurement": "metabolism with mouse liver microsomes", "setting": "[6]", "result": "no detectable metabolism"},
      {"measurement": "inhibitory potential towards nine different CYP450 enzymes", "setting": "[7]", "result": "no significant inhibition"},
      {"measurement": "inhibition at 10 µM", "setting": "[8]", "result": -17.7, "unit": "%"},
      {"measurement": "immobility in forced swim test", "setting": "[1]; [14]", "result": "insignificant trend"},
      {"measurement": "immobility in forced swim test", "setting": "[1]; intraperitoneal, 3 mg/kg", "result": "significant reduction in immobility"},
      {"measurement": "immobility in forced swim test", "setting": "[1]; oral, 10 mg/kg", "result": "decreased the time immobile; also recorded: reduced immobility"},
      {"measurement": "immobility in forced swim test", "setting": "[1]; oral, 1 and 3 mg/kg", "result": "failed to show significant activity"},
      {"measurement": "immobility in forced swim test (Figure 5)", "setting": "[1]; oral, lowest dose", "result": "slightly higher"},
      {"measurement": "functional characterization at α4β2-nAChRs", "setting": "[4]", "result": "partial agonist"},
      {"measurement": "inhibition at 10 µM", "setting": "[9]", "result": -10.1, "unit": "%"},
      {"measurement": "metabolism with human liver microsomes", "setting": "[10]", "result": "no detectable metabolism"},
      {"measurement": "inhibition at 10 µM", "setting": "[11]", "result": -19.9, "unit": "%"},
      {"measurement": "selectivity for α4β2- over α3β4-nAChR", "setting": "[5]", "result": "~15,000 fold"},
      {"measurement": "inhibition at 10 µM", "setting": "[12]", "result": -18.9, "unit": "%"},
      {"measurement": "inhibition at 10 µM", "setting": "[13]", "result": -17.8, "unit": "%"}
    ]}
  ]
}
